Measured values reported in PMC8659279, “Identification of a Novel Delta Opioid Receptor Agonist Chemotype with Potential Negative Allosteric Modulator Capabilities” (Molecules, 2021).
Where two headings read alike, the source gives them in different places.

Experiments:
[1] = cited from earlier work
[2] = target: T1, δOR (Mus musculus, UniProt P32300); test: GloSensor cAMP inhibition assay (forskolin-induced cAMP) in HEK 293 cells; assay type: cell-based
T1 construct: FLAG; expressed in transfected cells; host or cells: HEK 293

[3] = target: T2, δOR (Homo sapiens, UniProt P41143); set-up: method as in PMID 26507558, PMID 20850307, doi:10.1016/S0021-5198(19)49890-9; details: ref [14],[18],[19]; cited from earlier work
[4] = target: T3, µOR (Homo sapiens, UniProt P35372); set-up: method as in PMID 27533032; details: ref [32]; read-out: affinity at the µOR; cited from earlier work
[5] = target: T4, κOR (Homo sapiens, UniProt P41145); set-up: method as in PMID 28339199; details: ref [36]; read-out: affinity at the κOR; cited from earlier work
[6] = target: T4, κOR; set-up: method as in PMID 28339199; details: ref [36]; read-out: potency at the κOR; cited from earlier work
[7] = target: T2, δOR; test: Radioligand binding assay with [3H]DPDPE
[8] = target: T3, µOR; test: Radioligand binding assay with [3H]DAMGO; details: read-out: Affinity (pKi ± SEM) (converted)
[9] = target: T4, κOR; test: Radioligand binding assay with [3H]U69,593; details: read-out: Affinity (pKi ± SEM) (converted)
[10] = target: µOR (Mus musculus, UniProt P42866); test: GloSensor cAMP inhibition assay (forskolin-induced cAMP) in HEK 293 cells; assay type: cell-based; details: read-out: cAMP Potency (pIC50 ± SEM) (converted)
[11] = target: T4, κOR; test: GloSensor cAMP inhibition assay (forskolin-induced cAMP); assay type: cell-based; details: read-out: cAMP Potency (pIC50 ± SEM) (converted)
[12] = target: T2, δOR; test: PathHunter β-arrestin 2 recruitment, CHO-human δOR cells; assay type: cell-based; details: read-out: β-ARR2 potency (pEC50) (converted)
[13] = target: T2, δOR; test: PathHunter β-arrestin 1 recruitment, U2OS cells (also library screen); assay type: cell-based; details: read-out: β-ARR1 potency (pEC50) (converted)
[14] = target: T1, δOR; test: Assessment of allosteric modulation of Leu-enkephalin in δOR glosensor cAMP assay; assay type: cell-based
[15] = Table 2, three or more independent trials, read-out: pIC50 ± SEM to inhibit cAMP signaling at δOR (converted)

T1 sequence (P32300 whole entry): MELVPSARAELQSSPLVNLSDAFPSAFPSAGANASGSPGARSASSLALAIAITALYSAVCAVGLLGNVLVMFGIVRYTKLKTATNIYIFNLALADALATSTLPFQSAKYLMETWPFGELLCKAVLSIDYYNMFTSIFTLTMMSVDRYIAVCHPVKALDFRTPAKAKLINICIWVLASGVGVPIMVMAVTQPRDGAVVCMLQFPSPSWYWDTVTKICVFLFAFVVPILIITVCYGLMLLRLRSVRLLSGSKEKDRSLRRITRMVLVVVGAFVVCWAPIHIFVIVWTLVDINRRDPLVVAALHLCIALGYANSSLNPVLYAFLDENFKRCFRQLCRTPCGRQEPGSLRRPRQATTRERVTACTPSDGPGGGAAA
T4 sequence (P41145 whole entry): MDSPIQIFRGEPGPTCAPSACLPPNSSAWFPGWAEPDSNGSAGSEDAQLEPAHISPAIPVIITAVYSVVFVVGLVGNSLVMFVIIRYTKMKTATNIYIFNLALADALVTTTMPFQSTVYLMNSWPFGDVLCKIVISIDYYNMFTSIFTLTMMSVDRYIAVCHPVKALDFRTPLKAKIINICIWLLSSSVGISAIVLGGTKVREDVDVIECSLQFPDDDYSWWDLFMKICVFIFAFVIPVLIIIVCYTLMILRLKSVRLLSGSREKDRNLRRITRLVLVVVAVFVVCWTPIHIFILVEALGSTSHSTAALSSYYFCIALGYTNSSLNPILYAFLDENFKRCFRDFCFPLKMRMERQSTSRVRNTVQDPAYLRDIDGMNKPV
T2 sequence (P41143 whole entry): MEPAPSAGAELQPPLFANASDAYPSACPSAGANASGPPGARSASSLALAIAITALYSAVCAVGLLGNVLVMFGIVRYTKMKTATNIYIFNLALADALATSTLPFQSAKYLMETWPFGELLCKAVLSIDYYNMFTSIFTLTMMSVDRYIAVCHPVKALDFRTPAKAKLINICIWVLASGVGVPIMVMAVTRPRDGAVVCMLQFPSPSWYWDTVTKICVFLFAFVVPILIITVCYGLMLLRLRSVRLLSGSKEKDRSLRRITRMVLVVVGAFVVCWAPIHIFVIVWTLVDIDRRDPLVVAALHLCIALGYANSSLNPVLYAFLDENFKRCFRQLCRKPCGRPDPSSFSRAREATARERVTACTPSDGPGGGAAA
T3 sequence (P35372 whole entry): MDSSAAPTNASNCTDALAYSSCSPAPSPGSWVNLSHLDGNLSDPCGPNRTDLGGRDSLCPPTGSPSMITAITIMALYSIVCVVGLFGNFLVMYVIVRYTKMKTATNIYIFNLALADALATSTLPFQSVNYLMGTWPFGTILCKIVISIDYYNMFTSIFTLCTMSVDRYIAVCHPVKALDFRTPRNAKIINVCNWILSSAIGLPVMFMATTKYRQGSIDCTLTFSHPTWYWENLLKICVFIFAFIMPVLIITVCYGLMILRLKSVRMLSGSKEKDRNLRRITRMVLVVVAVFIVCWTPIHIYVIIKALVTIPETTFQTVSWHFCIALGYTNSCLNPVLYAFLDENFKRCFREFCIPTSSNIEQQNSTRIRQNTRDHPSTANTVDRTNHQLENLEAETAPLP
Chain of µOR (Mus musculus, UniProt P42866) (P42866 whole entry): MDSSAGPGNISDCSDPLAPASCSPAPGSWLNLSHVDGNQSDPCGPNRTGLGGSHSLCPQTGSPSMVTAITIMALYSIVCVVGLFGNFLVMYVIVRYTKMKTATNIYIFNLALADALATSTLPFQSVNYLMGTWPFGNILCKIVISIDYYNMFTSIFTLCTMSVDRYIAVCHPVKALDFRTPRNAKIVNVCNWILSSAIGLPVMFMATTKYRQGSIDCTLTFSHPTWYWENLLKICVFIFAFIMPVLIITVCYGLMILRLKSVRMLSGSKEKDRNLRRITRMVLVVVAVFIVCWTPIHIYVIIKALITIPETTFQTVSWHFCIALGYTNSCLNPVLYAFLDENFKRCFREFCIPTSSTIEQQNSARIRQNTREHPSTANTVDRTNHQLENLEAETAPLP

SMILES: CN(C)C(=O)c1ccc(C(=C2CCN(Cc3cncs3)CC2)c2cccc(C(N)=O)c2)cc1 [PN6047]
- proconvulsant effects ([1]; ref [17]): not proconvulsant

SMILES: COc1ccc(/C=N/NC(=O)c2cc(-c3ccc(C)s3)n[nH]2)cc1OC [Compound 11]
- IC50 [2, 15]: 3.98 µM

SMILES: CN1CCC2(c3cccc(O)c3)Cc3nc4ccccc4cc3CC2C1 (stereo not drawn) [TAN-67]
- Emax for β-arrestin 2 recruitment [3]: 30%

SMILES: COc1cc(/C=N/NC(=O)c2cc(-c3cccs3)n[nH]2)cc(OC)c1OC [Compound 8]
- IC50 [2, 15]: 10 µM

SMILES: COc1cccc(/C=N/NC(=O)c2cc(-c3ccco3)n[nH]2)c1O [Compound 12]
- IC50 [2, 15]: 7.94 µM

SMILES: COc1cccc(/C=N/NC(=O)c2cc(-c3ccc(Cl)s3)n[nH]2)c1O [Compound 13]
- IC50 [2, 15]: 7.94 µM

SMILES: C[C@H](Cc1cccs1)NC(=O)NC[C@H](Cc1ccc(O)cc1)N(C)C [PZM21]
- Ki [4]: 0.001 µM

SMILES: CCOc1cccc(/C=N/NC(=O)c2cc(-c3ccco3)n[nH]2)c1O [Compound 5]
- IC50 [2, 15]: 10 µM

SMILES: CC(c1cccc(O)c1)N(C)CCc1nccn1C (stereo not drawn) [compound 81]
- Ki [5]: 0.16 µM
- EC50 [6]: 0.53 µM

SMILES: CCN(CC)C(=O)c1ccc([C@H](c2cccc(N)c2)N2C[C@@H](C)N(Cc3ccc(F)cc3)C[C@@H]2C)cc1 [AZD2327]
- proconvulsant effects ([1]; ref [8]): proconvulsant effects

SMILES: COc1cc(/C=N/NC(=O)c2cc(-c3ccc(C)s3)n[nH]2)ccc1O [Compound 15]
- IC50 [2, 15]: 10 µM

SMILES: COc1cccc(/C=N/NC(=O)c2cc(-c3cccs3)n[nH]2)c1 [Compound 9]
- IC50 [2, 15]: 15.8 µM

SMILES: O=C(N/N=C/c1ccccc1)c1cc(-c2cccs2)n[nH]1 [Compound 2]
- IC50 [2, 15]: 12.6 µM

SMILES: O=C(N/N=C/c1ccc(O)c(O)c1)c1cc(-c2cccs2)n[nH]1 [Compound 6]
- IC50 [2, 15]: 12.6 µM

SMILES: COc1cccc(/C=N/NC(=O)c2cc(-c3ccc(Br)s3)n[nH]2)c1O [Compound 14]
- IC50 [2, 15]: 10 µM

SMILES: Cc1cccc(/C=N/NC(=O)c2cc(-c3cccs3)n[nH]2)c1 [Compound 3]
- IC50 [2, 15]: 7.94 µM

SMILES: O=C(N/N=C/c1ccc(Cl)cc1)c1cc(-c2cccs2)n[nH]1 [Compound 4]
- IC50 [2, 15]: 12.6 µM

SMILES: COc1cccc(C=NNC(=O)c2cc(-c3cccs3)n[nH]2)c1O [Compound 1, N’-(2-hydroxy-3-methoxybenzylidene)-3-(2-thienyl)-1H-pyrazole-5-carbohydrazide]
- affinity and potency at δOR stronger than for µOR and κOR (selectivity) ([7]; δOR over µOR and κOR): roughly 10 fold
- Ki ([7]; δOR, read-out: Affinity (pKi ± SEM) (converted)): 1.15 µM
- Ki [8]: > 10 µM
- Ki [9]: > 10 µM
- IC50 [2, 15]: 1 µM
- IC50 ([2]; δOR, read-out: cAMP Potency (pIC50 ± SEM) (converted)): 0.977 µM
- IC50 [10]: > 10 µM
- IC50 [11]: > 10 µM
- EC50 [12]: > 10 µM
- EC50 [13]: > 10 µM
- modulation of Leu-enkephalin activity in cAMP glosensor assay ([14]; Leu-enkephalin co-incubated with 0.1-10 µM compound 1): negative allosteric modulator (NAM)-agonist
- β (change in Leu-enkephalin Emax) ([14]; Leu-enkephalin co-incubated with increasing concentrations of compound 1): 1

SMILES: CN1CCC23Cc4nc5ccccc5cc4CC2(O)C1Cc1ccc(O)cc13 (stereo not drawn) [KNT-127]
- Emax for β-arrestin 2 recruitment [3]: 70%
- convulsions ([1]; ref [14],[18],[19]): do not induce convulsions

SMILES: CCOc1cccc(/C=N/NC(=O)c2cc(-c3ccc(Cl)s3)n[nH]2)c1O [Compound 10]
- IC50 [2, 15]: 7.94 µM
